Assay results published in US4642347A, “3(2-quinolinylalkoxy)phenols” (American Home Products Corporation, priority 1985, dated 1987).
“Also recorded” adds a separate entry of the source.

Columns and labels:
[1] = system: PGE2 synthesis (cyclooxygenase); assay: Inhibition of synthesis of PGE2 by rat polymorphonuclear leukocytes; type: cell-based, rat (Wistar); conditions: for IC50: Leukocyte, PGE2, read-out: 50% Inhibitory Concentration (IC50), Inhibition of Synthesis of PGE2; for IC50 / influence on the synthesis of PGE2 (in words): rat PMN; for cyclooxygenase inhibitory activity (in words): conclusion from TxB2 and PGE2 results
Protocol: (§1) Peritoneal PMN are obtained from female Wistar rats (150-250 g) that received an i.p. injection of 6% glycogen (10 ml). After 24 hours, rats are killed by CO2 asphyxiation and peritoneal cells are harvested by peritoneal lavage using Ca^++ and Mg^++ free Hanks' balanced salt solution (HBSS). The peritoneal exudate is centrifuged at 400 g for 10 minutes. After centrifugation, the lavaged fluid is removed and the cell pellet is resuspended in HBSS containing Ca^++ and Mg^++ and 10 mM L-cysteine at a concentration of 2×10^7 cells/ml. To 1 ml portions of cell suspension, test drugs or vehicle are added and incubated at 37° C. for 10 minutes. Following this preincubation, the calcium ionophore (10 μM), A23187, is added together with 0.5 μCi [^14 C] arachidonic acid and further incubated for 10 minutes. The reaction is stopped by the addition of ice cold water (3 ml) and acidifying to pH 3.5. Lipoxygenase products are then extracted twice into diethyl ether. The pooled ether extracts are evaporated to dryness under nitrogen and the residue is redissolved in a small volume of methanol and spotted on aluminum backed pre-coated thin layer chromatographic plates. The samples are then co-chromatographed with authentic reference 5-HETE in the solvent system--hexane:ether:acetic acid (50:50:3). After chromatography, the areas associated with 5-HETE standard are identified by autoradiography, cut out and quantitated by liquid scintillation.
(§2) The procedure of Example 2 is also employed for the determination of the ability of the compounds of the invention to inhibit the synthesis of the arachidonic acid cyclooxygenase oxidation products TxB2 and PGE2.
In this assay, the procedure of Example 2 is carried out as described. However, in order to determine cyclooxygenase activity, the samples are cochromatographed with authentic reference TxB2 and PGE2 in the solvent system ethyl acetate:formic acid (80:1) and the upper phase of ethyl acetate:isoctane:acetic acid:water (110:50:20:100). After chromatography, the areas associated with TxB2 and PGE2 standards are identified by autoradiography, cut out and quantitated by liquid scintillation techniques.
(§3) The results are calculated as in Example 2 and presented below.

[2] = system: leukotrienes C4 and/or D4 induced bronchospasm; assay: In vivo inhibition of bronchospasm induced in guinea pigs by exogenously administered leukotrienes C4 and/or D4; design: species or system guinea pig (Hartley); conditions: for % Maximal Bronchoconstriction / % Inhibition: 10 minutes before induction of bronchospasm; for % Inhibition: compared to its control (*P < 0.05; ***P < 0.001); for leukotriene antagonism (in words): summary of guinea pig results
[3] = system: ovalbumin-induced bronchoconstriction; assay: In vivo inhibition of ovalbumin-induced (anaphylactic) bronchoconstriction by endogenous mediators in sensitized guinea pigs; design: species or system guinea pig (Hartley); conditions: 50 mg/kg intraduodenally, 10 minutes before i.v. ovalbumin challenge; for % Inhibition: compared to its control (*P < 0.05; ***P < 0.005)
Protocol: The assay of this Example measures the in vivo ability of the compounds of the invention to inhibit the bronchospasm induced in guinea pigs by endogenous mediators of the bronchoconstriction.
(§4) The assay is carried out as follows:
Male Hartley strain guinea pigs weighing 250-350 g are sensitized to chicken ovalbumin (OA) (10 mg i.p.) on days 1 and 3 and used starting on day 26. The animals are anesthetized with pentobarbital sodium (50 mg/kg, i.p.), bilateral vagotomy is performed, and the jugular vein is cannulated for injection of drugs and the carotid artery for monitoring blood pressure. The trachea is cannulated for artificial ventilation by miniature Starling pump and for indirect measurement of respiratory volume changes as described, infra. Succinylcholine (2 mg/kg, i.v.) is administered to arrest spontaneous respiration. A cyclooxygenase inhibitor, indomethacin (10 mg/kg in tris buffer, i.v. at 9 min.) is administered to shunt arachidonic metabolism to lipoxygenase pathways. One minute later, chlorpheniramine (1.0 mg/kg in saline, i.v.) is given to attenuate the histaminic component of anaphylactic bronchoconstriction. Test drugs (dissolved in propylene glycol, polyethylene glycol or saline) are administered either intraduodenally or by aerosol at 2 or 10 minutes before antigen challenge. Anaphylactic bronchoconstriction is induced by administration by breaths of aerosolized OA (1%) or by intravenous administration of 0.1-0.3 mg/kg OA in saline. Control animals receive solvent (2 ml/kg i.d. or appropriate aerosol) in place of drug.
Respiratory volume changes are determined by a calibrated piston whose travel is recorded, via a linear transducer, on a Beckman Dynograph recorder. Maximal bronchoconstrictor volume is determined by clamping off the trachea at the end of the experiment. Overflow volumes at minutes 1, 3 and 5 are obtained from the recorded charts.
Area under the volume overflow curve (AUC) is estimated, using the overflow values at 1, 3 and 5 minutes, and expressed as a percentage of the maximal overflow AUC (equation 1): [formula] Drug effects are reported as percent inhibition of % max AUC values obtained from appropriate control animals (equation 2): [formula] Students t-test for unpaired data is used to determine statistical significance.

[4] = system: 5-HETE synthesis by rat glycogen-elicited polymorphonuclear leukocytes (5-lipoxygenase); assay: Inhibition of 5-HETE synthesis by rat glycogen-elicited polymorphonuclear leukocytes (A23187, [14C] arachidonic acid); type: cell-based, rat (Wistar); conditions: for IC50: Leukocyte, rat peritoneal PMN, 5-HETE synthesis, read-out: 50% Inhibitory Concentration (IC50), 5-HETE
Protocol: This is especially true with respect to 5,12-diHETE, which is also denoted as LTB4 [see Ford-Hitchinson, J. Roy. Soc. Med., 74, 831 (1981)]. The assay of this Example measures the ability of the compounds of the invention to inhibit the synthesis of 5-HETE and LTB4 by rat glycogen-elicited polymorphonuclear leukocytes.
as §4, §1
Results are expressed as % inhibition of [^14 C]5-HETE synthesis. [formula]

[5] = system: TxB2 synthesis (cyclooxygenase); assay: Inhibition of synthesis of TxB2 by rat polymorphonuclear leukocytes; type: cell-based, rat (Wistar); conditions: for IC50: Leukocyte, rat PMN, TxB2, read-out: % Inhibitory Concentration (IC50), Inhibition of Synthesis of TxB2
Protocol: as §1, §2
In this assay, the procedure of Example 2 is carried out as described. […] After chromatography, the areas associated with TxB2 and PGE2 standards are identified by autoradiography, cut out and quantitated by liquid scintillation techniques.
as §3

Structure (SMILES)	IC50 [1] [µM]	cyclooxygenase inhibitory activity (in words) [1]	influence on the synthesis of PGE2 (in words) [1]	% Maximal Bronchoconstriction ([2]; 50 mg/kg intraduodenally) [%]	% Inhibition ([2]; 50 mg/kg intraduodenally) [%]	leukotriene antagonism (in words) [2]	potency as inhibitor of LTD4-induced bronchoconstriction relative to the prior art compound ([2]; times more potent than the prior art compound, 50 mg/kg intraduodenally)	% Maximal Bronchoconstriction [3] [%]	% Inhibition [3] [%]	IC50 [4] [µM]	5-lipoxygenase inhibition (in words) ([4]; conclusion from Example 2)	potency in inhibiting the synthesis of 5-HETE relative to the prior art compound ([4]; rat peritoneal neutrophils, more potent than the prior art compound)	IC50 [5] [µM]	potency in inhibiting TxB2 synthesis relative to the compound of Example 1 ([5]; as potent as the compound of Example 1)
Oc1cccc(OCc2ccc3ccccc3n2)c1 [Example 1, 3-(2-Quinolinylmethoxyl)phenol]	> 100	little or no significant cyclooxygenase inhibitory activity	failure	10 ± 1	82	potent leukotriene antagonist	approximately three	21 ± 8	53	6.07	very potent 5-lipoxygenase inhibitor; also recorded: significant 5-lipoxygenase inhibition; also recorded: strong inhibitor of 5-lipoxygenase	approximately an order of magnitude more potent	14.6	–
Oc1ccccc1OCc1ccc2ccccc2n1 [2-(2-quinolinylmethoxy)phenol, reference compound]	5.82	potent activity as a cyclooxygenase inhibitor	quite significantly active	43 ± 6	28	ability to block leukotriene responses	–	31 ± 6	47	53	–	–	6.82	twice as potent
